≈ marks a conversion by molar mass, not a printed value. Entries after “also recorded” stand apart in the source; their conditions may differ. Where two headings read alike, the source gives them in different places.
How the values were obtained:
[1] = test system: Staphylococcus epidermidis EPI2; type: cell-based; conditions: free base, agar dilution
[2] = test system: Staphylococcus aureus NRRL B313; type: cell-based; conditions: NRRLB313
[3] = test system: Streptococcus sp. group D 9960; type: cell-based
Escherichia coli TEM = type: cell-based
[4] = test system: Staphylococcus aureus X400; type: cell-based
[5] = test system: pathogenic bacteria, especially gram-positive bacteria and Mycoplasma species; experiment: Antibacterial activity (in words); type: cell-based; conditions: qualitative statement
Text: (§1) Table 3 summarizes the minimal inhibitory concentrations (MIC), as measured by standard agar-dilution assays, at which DH-DO-DMT and DH-DO-OMT (as free bases) inhibit certain bacteria.

[6] = test system: Haemophilus influenzae C.L.; type: cell-based
[7] = test system: Staphylococcus aureus V41; type: cell-based
[8] = test system: Haemophilus influenzae 76; type: cell-based
[9] = test system: Staphylococcus epidermidis EPI1; type: cell-based
[10] = test system: Streptococcus pyogenes C203; type: cell-based
[11] = test system: Streptococcus pneumoniae Park 1; type: cell-based
[12] = test system: Klebsiella pneumoniae X26; type: cell-based
[13] = test system: Streptococcus faecium ATCC 9790; type: cell-based; conditions: Enterococcus faecium, ATCC9790
Solubility = type: physicochemical; conditions: for solubility in polar organic solvents: free bases, acetone, methanol, ethanol, chloroform, dimethylformamide, dimethyl sulfoxide; for solubility in water: free bases (rows) or acid addition salts (sets)
Escherichia coli EC14 = type: cell-based; conditions: free base, agar dilution
Text: as §1

Escherichia coli N10 = type: cell-based; conditions: free base, agar dilution
Text: as §1

Shigella sonnei N9 = type: cell-based; conditions: free base, agar dilution
Text: as §1

[14] = test system: Klebsiella pneumoniae KAE; type: cell-based; conditions: free base, agar dilution
Text: as §1

[15] = test system: Bacteroides melaninogenicus 2736; experiment: MIC against anaerobic bacteria, standard agar-dilution assay; type: cell-based; conditions: end point after 24 hours
[16] = test system: Fusobacterium symbiosum 1470; experiment: as above; type: cell-based; conditions: end point after 24 hours
M. synoviae = experiment: MIC against Mycoplasma species; type: cell-based; conditions: Mycoplasmopsis synoviae
Text: (§2) In addition, DH-DO-OMT inhibits Mycoplasma species.

M. gallisepticum = experiment: MIC against Mycoplasma species; type: cell-based; conditions: Mycoplasmoides gallisepticum
Text: as §2

[17] = test system: Bacteroides fragilis 1877; experiment: MIC against anaerobic bacteria, standard agar-dilution assay; type: cell-based; conditions: end point after 24 hours
[18] = test system: Streptococcus pyogenes C203; experiment: In vivo activity against experimental infections in mice; conditions: free base, oral, two doses, bacterial challenge 64 LD50
[19] = test system: Bacteroides corrodens 1874; experiment: MIC against anaerobic bacteria, standard agar-dilution assay; type: cell-based; conditions: Eikenella corrodens, end point after 24 hours
[20] = test system: Eubacterium aerofaciens 1235; experiment: as above; type: cell-based; conditions: Collinsella aerofaciens, end point after 24 hours
[21] = test system: Streptococcus pneumoniae Park I; experiment: In vivo activity against experimental infections in mice; conditions: po
Chlamydia trachomatis = experiment: MIC, Chlamydia trachomatis grown in cell culture; type: cell-based
Text: as §2

[22] = test system: Fusobacterium necrophorum 6054A; experiment: MIC against anaerobic bacteria, standard agar-dilution assay; type: cell-based; conditions: end point after 24 hours
[23] = test system: Peptostreptococcus anaerobius 1428; experiment: as above; type: cell-based; conditions: end point after 24 hours
[24] = test system: Peptococcus asaccharolyticus 1302; experiment: as above; type: cell-based; conditions: Peptoniphilus asaccharolyticus, end point after 24 hours
[25] = test system: Staphylococcus aureus 3055; experiment: In vivo activity against experimental infections in mice; conditions: two doses
Bacteroides fragilis 111 = experiment: MIC against anaerobic bacteria, standard agar-dilution assay; type: cell-based; conditions: end point after 24 hours
[26] = test system: Bacteroides vulgatis 1211; experiment: as above; type: cell-based; conditions: end point after 24 hours
[27] = test system: Propionibacterium acnes 79; experiment: as above; type: cell-based; conditions: Cutibacterium acnes, end point after 24 hours
[28] = test system: Clostridium septicum 1128; experiment: as above; type: cell-based; conditions: end point after 24 hours
Description: (§3) Table 4 summarizes the MIC's at which DH-DO-OMT inhibits these bacteria. The MIC's were determined using a standard agar-dilution assay and reading the end point after 24 hours.

Peptococcus prevoti 1281 = experiment: as above; type: cell-based; conditions: end point after 24 hours
Description: as §3

[29] = test system: Bacteroides thetaiotaomicron 1438; experiment: as above; type: cell-based; conditions: Bacteroides thetaiotaomicron, 1438, 24 h
Description: as §3

[30] = test system: Bacteroides melaninogenicus 1856/28; experiment: as above; type: cell-based; conditions: end point after 24 hours
[31] = test system: Clostridium difficile 2994; experiment: as above; type: cell-based; conditions: Clostridioides difficile, end point after 24 hours
[32] = test system: Bacteroides fragilis 1936B; experiment: as above; type: cell-based; conditions: end point after 24 hours
[33] = test system: Clostridium perfringens 81; experiment: microbe, parasite or virus in culture; type: cell-based; conditions: Clostridium perfringens, 81, 24 h
[34] = test system: Peptostreptococcus intermedius 1264; experiment: MIC against anaerobic bacteria, standard agar-dilution assay; type: cell-based; conditions: end point after 24 hours

## CCC1CC(C)C(=O)C=CC(C)=CC(CO)C(CC)OC(=O)CC(O)C(C)C1OC1OC(C)C(OC2CC(C)(O)C(O)C(C)O2)C(N(C)C)C1O (stereo not drawn) [DH-DO-DMT, 20-dihydro-20-deoxy-23-demycinosyltylosin]
[1]
  MIC: 64 µg/mL (≈ 87.9 µM)
[2]; Staphylococcus aureus
  MIC: 128 µg/mL (≈ 176 µM)
[3]; Streptococcus
  MIC: > 128 µg/mL
Escherichia coli TEM; Escherichia coli
  MIC: > 128 µg/mL
[4]; Staphylococcus aureus, X400
  MIC: > 128 µg/mL
[5]
  antibacterial activity: inhibit the growth of pathogenic bacteria, especially gram-positive bacteria and Mycoplasma species; also recorded: some antibacterial activity; also recorded: active against gram-positive microorganisms and Mycoplasma species
[6]; Haemophilus influenzae
  MIC: > 128 µg/mL
[7]; Staphylococcus aureus, V41
  MIC: 128 µg/mL (≈ 176 µM)
[8]; Haemophilus influenzae, 76
  MIC: > 128 µg/mL
[9]
  MIC: 128 µg/mL (≈ 176 µM)
[10]; Streptococcus pyogenes, C203
  MIC: > 128 µg/mL
[11]; PARK1
  MIC: > 128 µg/mL
[12]; Klebsiella pneumoniae, X26
  MIC: > 128 µg/mL
[13]
  MIC: > 128 µg/mL
Solubility
  solubility in polar organic solvents: soluble in water and in most polar organic solvents
  solubility in water: soluble in water
Escherichia coli EC14
  MIC: > 128 µg/mL
Escherichia coli N10
  MIC: > 128 µg/mL
Shigella sonnei N9
  MIC: > 128 µg/mL
[14]
  MIC: > 128 µg/mL

## CCC1CC(C)C(=O)C=CC(C)=CC(CO)C(CC)OC(=O)CC(O)C(C)C1OC1OC(C)C(O)C(N(C)C)C1O (stereo not drawn) [DH-DO-OMT, 20-Dihydro-20-deoxy-5-O-mycaminosyltylonolide]
[15]
  MIC: > 8 µg/mL
[16]
  MIC: > 8 µg/mL
[1]
  MIC: 8 µg/mL (≈ 13.7 µM)
M. synoviae
  MIC: 12.5 µg/mL (≈ 21.4 µM)
M. gallisepticum
  MIC: 12.5 µg/mL (≈ 21.4 µM)
[17]
  MIC: > 8 µg/mL
[18]
  ED50: 75.3 mg/kg
[19]
  MIC: > 8 µg/mL
[2]; free base, agar dilution, Staphylococcus aureus NRRL B313, read-out: MIC
  MIC: 4 µg/mL (≈ 6.85 µM)
[20]
  MIC: 2 µg/mL (≈ 3.43 µM)
[21]
  ED50: 224 mg/kg
[3]; free base, agar dilution, Streptococcus sp. group D 9960, read-out: MIC
  MIC: 16 µg/mL (≈ 27.4 µM)
Escherichia coli TEM; free base, agar dilution, Escherichia coli TEM, read-out: MIC
  MIC: 64 µg/mL (≈ 110 µM)
Chlamydia trachomatis
  MIC: 0.5 µg/mL (≈ 0.857 µM)
[4]; free base, agar dilution, Staphylococcus aureus X400, read-out: MIC
  MIC: 8 µg/mL (≈ 13.7 µM)
[22]
  MIC: 8 µg/mL (≈ 13.7 µM)
[23]
  MIC: > 8 µg/mL
[5]
  antibacterial activity: inhibit the growth of pathogenic bacteria, especially gram-positive bacteria and Mycoplasma species; also recorded: active against gram-positive microorganisms and Mycoplasma species
[24]
  MIC: > 8 µg/mL
[6]; free base, agar dilution, Haemophilus influenzae C.L., read-out: MIC
  MIC: 16 µg/mL (≈ 27.4 µM)
[25]; Staphylococcus aureus, 3055, free base, oral, bacterial challenge 100 LD50
  ED50: 44 mg/kg
[25]; Staphylococcus aureus, 3055, sc, free base, subcutaneous, bacterial challenge 221 LD50
  ED50: 37.3 mg/kg
Bacteroides fragilis 111
  MIC: > 8 µg/mL
[26]
  MIC: > 8 µg/mL
[7]; free base, agar dilution, Staphylococcus aureus V41, read-out: MIC
  MIC: 4 µg/mL (≈ 6.85 µM)
[8]; free base, agar dilution, Haemophilus influenzae 76, read-out: MIC
  MIC: 16 µg/mL (≈ 27.4 µM)
[27]
  MIC: 2 µg/mL (≈ 3.43 µM)
[28]
  MIC: 2 µg/mL (≈ 3.43 µM)
Peptococcus prevoti 1281
  MIC: > 8 µg/mL
[29]
  MIC: > 8 µg/mL
[9]; read-out: MIC
  MIC: 8 µg/mL (≈ 13.7 µM)
[30]
  MIC: > 8 µg/mL
[31]
  MIC: 2 µg/mL (≈ 3.43 µM)
[10]; free base, agar dilution, Streptococcus pyogenes C203, read-out: MIC
  MIC: 8 µg/mL (≈ 13.7 µM)
[11]; PARK1, read-out: MIC
  MIC: 8 µg/mL (≈ 13.7 µM)
[32]
  MIC: > 8 µg/mL
[33]
  MIC: 2 µg/mL (≈ 3.43 µM)
[12]; free base, agar dilution, Klebsiella pneumoniae X26, read-out: MIC
  MIC: 4 µg/mL (≈ 6.85 µM)
[13]; free base, agar dilution, Streptococcus faecium ATCC 9790, read-out: MIC
  MIC: 16 µg/mL (≈ 27.4 µM)
Solubility
  solubility in polar organic solvents: soluble in water and in most polar organic solvents
  solubility in water: soluble in water
[34]
  MIC: > 8 µg/mL
Escherichia coli EC14
  MIC: > 128 µg/mL
Escherichia coli N10
  MIC: > 128 µg/mL
Shigella sonnei N9
  MIC: > 128 µg/mL
[14]
  MIC: > 128 µg/mL

Source: patent US4419508A, “20-Dihydro-20-deoxy-23-demycinosyltylosin and process for its production” (Eli Lilly and Company, priority 1981, dated 1983)
